From paper PMC8079033, “Design, synthesis, anticancer evaluation, and molecular modelling studies of novel tolmetin derivatives as potential VEGFR-2 inhibitors and apoptosis inducers” (Journal of Enzyme Inhibition and Medicinal Chemistry, 2021)

Legend:
NCI-H322M = assay: NCI 60-cell line one-dose antiproliferative screen (SRB); format: cell-based; conditions: Homo sapiens, read-out: growth inhibition % (GI%)
Protocol: (§1) Anticancer activity screening of the newly synthesised compounds was measured in vitro utilising 60 different human tumour cell lines provided by US National Cancer Institute according to previously reported standard procedure[41–43] as follows: Cells are inoculated into 96-well microtiter plates in 100 ml. After cell inoculation, the microtiter plates are incubated at 37 °C, 5% CO2, 95% air, and 100% relative humidity for 24 h prior to addition of experimental compounds. After 24 h, two plates of each cell line are fixed in situ with TCA, to represent a measurement of the cell population for each cell line at the time of compound addition (Tz). Experimental compounds are solubilised in dimethyl sulfoxide at 400-fold the desired final maximum test concentration and stored frozen prior to use. At the time of compound addition, an aliquot of frozen concentrate is thawed and diluted to twice the desired final maximum test concentration with a complete medium containing […] gentamicin. Aliquots of […] of the compounds dilutions are added to the appropriate microtiter wells already containing 100 ml of medium, resulting in the required final compound concentration. Following compound addition, the plates are incubated for an additional 48 h at 37 °C, 5% CO2, 95% air, and 100% relative humidity. For adherent cells, the assay is terminated by the addition of cold trichloroacetic acid (TCA). Cells are fixed in situ by the gentle addition of 50 ml of cold 50% (w/v) TCA (final concentration, 10% TCA) and incubated for […] at 4 °C. The supernatant is discarded, and the plates are washed five times with tap water and air-dried. Sulforhodamine B (SRB) solution (100 ml) at 0.4% (w/v) in 1% acetic acid is added to each well, and plates are incubated for 10 min at room temperature. After staining, the unbound dye is removed by washing five times with 1% acetic acid and the plates are air-dried. The bound stain is subsequently solubilised with a 10 mM trizma base, and the absorbance is read on an automated plate reader at a wavelength of 515 nm. For suspension cells, the methodology is the same except that the assay is terminated by fixing settled cells at the bottom of the wells by gently adding 50 ml of 80% TCA (final concentration, 16% TCA). Using the absorbance measurements [time zero, (Tz), control growth, (C), and test growth in the presence of compound (Ti)], the percentage growth is calculated for each compound. The One-dose data are reported as a mean graph of the percent growth of treated cells. The reported number is growth relative to the no-compound control, and relative to the time zero number of cells. This allows the detection of both growth inhibition and lethality.
(§2) Fifteen newly synthesised compounds were tested for their in vitro antiproliferative activity by the National Cancer Institute (NCI), Maryland, USA[50], under the Developmental Therapeutic Program (DTP)[41]^,[43]^,[51]^,[52]. The tested compounds were evaluated at a concentration of 10 µM on a panel of 60 tumour cell lines representing leukaemia and non-small cell lung, colon, CNS, melanoma, ovarian, renal, prostate, and breast cancers. The antiproliferative activity was presented by the NCI as percent growth of the treated cells and is presented in Table 1 as growth inhibition percentage (GI%) achieved by the tested compounds.

IGROV1 = assay: as above; format: cell-based; conditions: Homo sapiens, IGROV-1, read-out: growth inhibition % (GI%)
Protocol: as §1, §2

CAKI-1 = assay: as above; format: cell-based; conditions: Homo sapiens, read-out: growth inhibition % (GI%)
Protocol: as §1, §2

SK-MEL-28 = assay: as above; format: cell-based; conditions: Homo sapiens, read-out: growth inhibition % (GI%)
Protocol: as §1, §2

EKVX = assay: as above; format: cell-based; conditions: Homo sapiens, read-out: growth inhibition % (GI%)
Protocol: as §1, §2

MDA-MB-231/ATCC = assay: as above; format: cell-based; conditions: Homo sapiens, read-out: growth inhibition % (GI%)
Protocol: as §1, §2

HCT-15 = assay: as above; format: cell-based; conditions: Homo sapiens, read-out: growth inhibition % (GI%)
Protocol: as §1, §2

HL-60 (TB) = assay: as above; format: cell-based; conditions: Homo sapiens, read-out: growth inhibition % (GI%)
Protocol: as §1, §2

MOLT-4 = assay: as above; format: cell-based; conditions: Homo sapiens, read-out: growth inhibition % (GI%)
Protocol: as §1, §2

MDA-MB-435 = assay: as above; format: cell-based; conditions: Homo sapiens, read-out: growth inhibition % (GI%)
Protocol: as §1, §2

HS 578 T = assay: as above; format: cell-based; conditions: Homo sapiens, read-out: growth inhibition % (GI%)
Protocol: as §1, §2

UO-31 = assay: as above; format: cell-based; conditions: Homo sapiens, read-out: growth inhibition % (GI%)
Protocol: as §1, §2

SNB-19 = assay: as above; format: cell-based; conditions: Homo sapiens, read-out: growth inhibition % (GI%)
Protocol: as §1, §2

SK-MEL-5 = assay: as above; format: cell-based; conditions: Homo sapiens, read-out: growth inhibition % (GI%)
Protocol: as §1, §2

SF-268 = assay: as above; format: cell-based; conditions: Homo sapiens, read-out: growth inhibition % (GI%)
Protocol: as §1, §2

M14 = assay: as above; format: cell-based; conditions: Homo sapiens, read-out: growth inhibition % (GI%)
Protocol: as §1, §2

SK-MEL-2 = assay: as above; format: cell-based; conditions: Homo sapiens, read-out: growth inhibition % (GI%)
Protocol: as §1, §2

NCI/ADR-RES = assay: as above; format: cell-based; conditions: Homo sapiens, read-out: growth inhibition % (GI%)
Protocol: as §1, §2

SW-620 = assay: as above; format: cell-based; conditions: Homo sapiens, read-out: growth inhibition % (GI%)
Protocol: as §1, §2

SK-OV-3 = assay: as above; format: cell-based; conditions: Homo sapiens, read-out: growth inhibition % (GI%)
Protocol: as §1, §2

OVCAR-8 = assay: as above; format: cell-based; conditions: Homo sapiens, read-out: growth inhibition % (GI%)
Protocol: as §1, §2

K-562 = assay: as above; format: cell-based; conditions: Homo sapiens, K562, read-out: growth inhibition % (GI%)
Protocol: as §1, §2

T-47D = assay: as above; format: cell-based; conditions: Homo sapiens, T47D, read-out: growth inhibition % (GI%)
Protocol: as §1, §2

SNB-75 = assay: as above; format: cell-based; conditions: Homo sapiens, read-out: growth inhibition % (GI%)
Protocol: as §1, §2

A549/ATCC = assay: as above; format: cell-based; conditions: Homo sapiens, read-out: growth inhibition % (GI%)
Protocol: as §1, §2

PC-3 = assay: as above; format: cell-based; conditions: Homo sapiens, read-out: growth inhibition % (GI%)
Protocol: as §1, §2

KM12 = assay: as above; format: cell-based; conditions: Homo sapiens, read-out: growth inhibition % (GI%)
Protocol: as §1, §2

HOP-62 = assay: as above; format: cell-based; conditions: Homo sapiens, read-out: growth inhibition % (GI%)
Protocol: as §1, §2

NCI-H226 = assay: as above; format: cell-based; conditions: Homo sapiens, read-out: growth inhibition % (GI%)
Protocol: as §1, §2

A498 = assay: as above; format: cell-based; conditions: Homo sapiens, read-out: growth inhibition % (GI%)
Protocol: as §1, §2

SN 12 C = assay: as above; format: cell-based; conditions: Homo sapiens, SN12C, read-out: growth inhibition % (GI%)
Protocol: as §1, §2

NCI-H23 = assay: as above; format: cell-based; conditions: Homo sapiens, read-out: growth inhibition % (GI%)
Protocol: as §1, §2

ACHN = assay: as above; format: cell-based; conditions: Homo sapiens, read-out: growth inhibition % (GI%)
Protocol: as §1, §2

MCF7 = assay: as above; format: cell-based; conditions: Homo sapiens, read-out: growth inhibition % (GI%)
Protocol: as §1, §2

NCI-H522 = assay: as above; format: cell-based; conditions: Homo sapiens, read-out: growth inhibition % (GI%)
Protocol: as §1, §2

HCT-116 = assay: as above; format: cell-based; conditions: Homo sapiens, read-out: growth inhibition % (GI%)
Protocol: as §1, §2

U251 = assay: as above; format: cell-based; conditions: Homo sapiens, U-251, read-out: growth inhibition % (GI%)
Protocol: as §1, §2

LOX IMVI = assay: as above; format: cell-based; conditions: Homo sapiens, read-out: growth inhibition % (GI%)
Protocol: as §1, §2

BT-5 = assay: as above; format: cell-based; conditions: Homo sapiens, read-out: growth inhibition % (GI%)
Protocol: as §1, §2

CCRF-CEM = assay: as above; format: cell-based; conditions: Homo sapiens, read-out: growth inhibition % (GI%)
Protocol: as §1, §2

Cc1ccc(C(=O)c2ccc(CC(=O)NN3C(=O)c4ccccc4C3=O)n2C)cc1 [Compound 7c, N-(1,3-Dioxoisoindolin-2-yl)-2–(1-methyl-5–(4-methylbenzoyl)-1H-pyrrol-2-yl) acetamide]
13.3%: inhibition at 10 µM (A498)
17.9%: inhibition at 10 µM (SNB-75)
> 300 °C: melting point
25.5%: inhibition at 10 µM (T-47D)
10.6%: inhibition at 10 µM (MOLT-4)
10.2%: inhibition at 10 µM (LOX IMVI)
< 10%: inhibition at 10 µM (NCI-H322M) | inhibition at 10 µM (CAKI-1) | inhibition at 10 µM (SK-MEL-28) | inhibition at 10 µM (MDA-MB-231/ATCC) | inhibition at 10 µM (HCT-15) | inhibition at 10 µM (HL-60 (TB)) | inhibition at 10 µM (MDA-MB-435) | inhibition at 10 µM (HS 578 T) | inhibition at 10 µM (SNB-19) | inhibition at 10 µM (SK-MEL-5) | inhibition at 10 µM (SF-268) | inhibition at 10 µM (M14) | inhibition at 10 µM (SK-MEL-2) | inhibition at 10 µM (NCI/ADR-RES) | inhibition at 10 µM (SW-620) | inhibition at 10 µM (SK-OV-3) | inhibition at 10 µM (OVCAR-8) | inhibition at 10 µM (K-562) | inhibition at 10 µM (PC-3) | inhibition at 10 µM (KM12) | inhibition at 10 µM (HOP-62) | inhibition at 10 µM (NCI-H226) | inhibition at 10 µM (SN 12 C) | inhibition at 10 µM (NCI-H23) | inhibition at 10 µM (ACHN) | inhibition at 10 µM (MCF7) | inhibition at 10 µM (HCT-116) | inhibition at 10 µM (U251) | inhibition at 10 µM (BT-5) | inhibition at 10 µM (CCRF-CEM)
14%: inhibition at 10 µM (A549/ATCC)
27.3%: inhibition at 10 µM (UO-31)
24.5%: inhibition at 10 µM (EKVX)
14.8%: inhibition at 10 µM (IGROV1)
14.4%: inhibition at 10 µM (NCI-H522)
